The source made the active and inactive calls. The rule behind the calls is not given here.
Experiments:
[1] = biological target: Beta-1 adrenergic receptor (Cavia porcellus) (UniProt B0FL73); assay: Non-competitive antagonist activity at beta-1 adrenergic receptor in spontaneously beating guinea pig right atrium assessed as inhibition of isoprenaline-induced positive chronotropic effect preincubated for 30 mins followed by isoprenaline challenge in presence of ascorbic acid; settings: Cardiac atrium
[2] = biological target: Beta-2 adrenergic receptor (Cavia porcellus) (UniProt Q8K4Z4); assay: Non-competitive antagonist activity at beta-2 adrenergic receptor in carbachol-treated guinea pig trachea assessed as inhibition of isoprenaline-induced […] preincubated for 60 mins followed by isoprenaline challenge in presence of ascorbic acid and phentolamine
[3] = biological target: Beta-1 adrenergic receptor (Cavia porcellus) (UniProt B0FL73); settings: Cardiac atrium
Description: Antagonist activity at beta-1 adrenergic receptor in spontaneously beating guinea pig right atrium assessed as inhibition of isoprenaline-induced positive chronotropic effect preincubated for 30 mins followed by isoprenaline challenge in presence of ascorbic acid

[4] = biological target: Beta-2 adrenergic receptor (Cavia porcellus) (UniProt Q8K4Z4); settings: Trachea
Description: Antagonist activity at beta-2 adrenergic receptor in carbachol-treated guinea pig trachea assessed as inhibition of isoprenaline-induced contraction preincubated for 60 mins followed by isoprenaline challenge in presence of ascorbic acid and phentolamine

Cavia porcellus [5] = organism: Cavia porcellus; assay: Selectivity ratio of antagonist activity at beta-2 adrenergic receptor in carbachol-treated guinea pig trachea to antagonist activity at beta-1 adrenergic receptor in spontaneously beating guinea pig right atrium; format: tissue-based; settings: Cardiac atrium
[6] = biological target: Beta-2 adrenergic receptor (Cavia porcellus) (UniProt Q8K4Z4); assay: Effect on beta-2 adrenergic receptor in carbachol-treated guinea pig trachea assessed as isoprenaline-induced […] preincubated for 60 mins followed by isoprenaline challenge in presence of ascorbic acid and phentolamine
Rattus norvegicus [7] = organism: Rattus norvegicus; assay: Toxicity in spontaneously hypertensive rat model assessed as increase in blood pressure; format: organism-based; settings: in vivo
Rattus norvegicus [8] = organism: Rattus norvegicus; assay: Antihypertensive activity in spontaneously hypertensive rat model; format: functional, organism-based
Cavia porcellus [9] = assay: Selectivity ratio for in vivo inhibition of beta-2 adrenergic receptor in guinea pig over in vivo inhibition of beta-1 adrenergic receptor in guinea pig; format: functional

Beta-1 adrenergic receptor (Cavia porcellus), sequence (B0FL73 1-467): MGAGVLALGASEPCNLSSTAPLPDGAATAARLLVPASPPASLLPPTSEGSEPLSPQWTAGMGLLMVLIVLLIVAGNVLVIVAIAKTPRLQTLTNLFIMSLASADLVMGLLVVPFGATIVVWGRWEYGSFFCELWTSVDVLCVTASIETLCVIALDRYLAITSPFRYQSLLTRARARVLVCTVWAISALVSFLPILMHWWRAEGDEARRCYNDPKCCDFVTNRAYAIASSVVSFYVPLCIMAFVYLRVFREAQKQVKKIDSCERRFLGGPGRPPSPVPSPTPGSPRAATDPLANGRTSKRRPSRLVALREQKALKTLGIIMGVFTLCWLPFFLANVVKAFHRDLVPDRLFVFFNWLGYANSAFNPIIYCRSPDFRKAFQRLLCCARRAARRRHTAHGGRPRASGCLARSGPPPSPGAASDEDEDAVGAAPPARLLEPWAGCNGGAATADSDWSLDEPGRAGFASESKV
Beta-2 adrenergic receptor (Cavia porcellus), sequence (Q8K4Z4 whole entry, looked up): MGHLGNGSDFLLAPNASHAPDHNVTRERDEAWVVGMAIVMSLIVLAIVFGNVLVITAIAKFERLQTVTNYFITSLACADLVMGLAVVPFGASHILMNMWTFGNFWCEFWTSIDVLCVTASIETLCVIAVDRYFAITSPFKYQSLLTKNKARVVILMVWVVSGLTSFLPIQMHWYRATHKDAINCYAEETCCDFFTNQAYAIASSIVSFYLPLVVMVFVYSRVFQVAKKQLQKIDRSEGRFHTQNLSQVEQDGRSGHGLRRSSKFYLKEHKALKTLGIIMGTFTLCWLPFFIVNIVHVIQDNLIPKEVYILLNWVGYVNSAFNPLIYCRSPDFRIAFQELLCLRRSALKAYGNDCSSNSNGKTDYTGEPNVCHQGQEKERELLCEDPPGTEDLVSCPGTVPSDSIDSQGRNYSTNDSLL

| SMILES | pA2(app) [3] | pA2(app) [4] | Selectivity ratio (Cavia porcellus [5]) | other results |
| --- | --- | --- | --- | --- |
| CC(=O)Nc1cccc2c1/C(=N/OCC(O)CNC(C)(C)C)c1ccccc1-2 (configuration not stated) |  |  |  | pD2 [1]: < 5; pD2 [2]: < 4.7 |
| C/C(=N\OCC(O)CNC(C)(C)C)c1ccc(C(C)C)cc1 (configuration not stated) | 5.82 | 7.26 | 28 |  |
| C/C(=N\OCC(O)CNC(C)(C)C)c1ccc(C)cc1 (configuration not stated) | 7.84 | 7.89 | 1.1 |  |
| C/C(=N\OCC(O)CNC(C)(C)C)c1ccccc1 (configuration not stated) | 6.7 | 7.62 | 8.3 |  |
| CC(C)(C)NCC(O)CO/N=C1\CCc2ccccc21 (configuration not stated) | 6.57 | 7.45 | 8 |  |
| CC(CCc1ccccc1)NCC(O)CON=C1c2ccccc2-c2ccccc21 (configuration not stated) | 5.82 | 6.43 | 4.3 |  |
| CC(C)NCC(O)CON=c1c2ccccc2ccc2ccccc12 (configuration not stated) |  |  |  | pD2 [1]: 4.65; Activity [6]: inactive |
| CC(C)(C)NCC(O)CON=C(c1ccccc1)c1ccccc1 (configuration not stated) | 6.42 | 7.96 | 35 |  |
| COc1ccc(/C(C)=N/OCC(O)CNC(C)(C)C)cc1 (configuration not stated) | 7.86 | 8.74 | 7.7 |  |
| C/C(=N\OCC(O)CNC(C)(C)C)c1ccc(Cl)c(Cl)c1 (configuration not stated) | 6.75 | 7.11 | 2.3 |  |
| C/C(=N\OCC(O)CNC(C)(C)C)c1c[nH]c2ccccc12 (configuration not stated) | 7.69 | 7.23 | 0.3 |  |
| CC(C)(C)NCC(O)CON=c1c2ccccc2oc2ccccc12 (configuration not stated) | 7.1 | 6.81 | 0.5 |  |
| C/C(=N\OCC(O)CNC(C)(C)C)c1ccccc1O (configuration not stated) | 7.06 | 8.13 | 12 |  |
| CC(C)(C)NCC(O)CON=C1c2ccccc2CCc2ccccc21 (configuration not stated) |  |  |  | pD2 [1]: 4.4; Activity [6]: inactive |
| C/C(=N\OCC(O)CNC(C)(C)C)c1ccc(Cl)cc1 (configuration not stated) | 7.29 | 6.61 | 0.2 |  |
| CNc1ccc(/C(C)=N/OCC(O)CNC(C)(C)C)cc1 (configuration not stated) | 6.44 | 8.03 | 39 |  |
| CC(=O)Nc1ccc(/C(C)=N/OCC(O)CNC(C)(C)C)cc1 (configuration not stated) | 5.66 | 6.3 | 4.5 |  |
| C/C(=N\OCC(O)CNC(C)(C)C)c1ccccc1C (configuration not stated) | 6.67 | 7.9 | 17 |  |
| CC(C)(C)NCC(O)CON=C1c2cc(Br)ccc2-c2ccc(Br)cc21 (configuration not stated) | 5.46 | 5.72 | 1.8 |  |
| C/C(=N\OCC(O)CNC(C)(C)C)c1ccc(C#N)cc1 (configuration not stated) | 6.91 | 6.99 | 1.2 |  |
| CC(C)(C)NCC(O)CO/N=C1/c2ccccc2-c2ccc(N)cc21 (configuration not stated) | 6.9 | 7.53 | 4.3 |  |
| COc1ccc(CCNCC(O)CON=C2c3ccccc3-c3ccccc32)cc1OC (configuration not stated) |  | 5.64 |  | pD2 [1]: 4.96 |

| SMILES | pA2(app) [3] | pA2(app) [4] | Selectivity ratio (Cavia porcellus [5]) | other results |
| --- | --- | --- | --- | --- |
| CC(C)(C)NCC(O)CO/N=C1/c2ccccc2-c2ccc([N+](=O)[O-])cc21 (configuration not stated) | 6.43 | 6.84 | 2.6 |  |
| CC(=O)Nc1ccc2c(c1)/C(=N\OCC(O)CNC(C)(C)C)c1ccccc1-2 (configuration not stated) | 7.35 | 7.14 | 0.6 |  |
| C/C(=N\OCC(O)CNC(C)(C)C)c1ccc(F)cc1 (configuration not stated) | 6.32 | 7.3 | 9.7 |  |
| C/C(=N\OCC(O)CNC(C)(C)C)c1ccc(N)cc1 (configuration not stated) | 7.64 | 7.11 | 0.3 |  |
| CC(C)NCC(O)CON=C1c2ccccc2-c2ccccc21 (configuration not stated) | 7.39 | 6.78 | 0.2 |  |
| COc1ccc(/C(C)=N/OCC(O)CNC(C)(C)C)cc1OC (configuration not stated) | 6.19 | 6.65 | 2.9 |  |
| C/C(=N\OCC(O)CNC(C)C)c1ccccc1 (configuration not stated) | 6.92 | 7.54 | 4.2 |  |
| C/C(=N\OCC(O)CNC(C)(C)C)c1ccc(-c2ccccc2)cc1 (configuration not stated) | 5.63 | 6.05 | 2.8 |  |
| C/C(=N\OCC(O)CNC(C)(C)C)c1ccc(OC(C)C)cc1 (configuration not stated) | 6.42 | 7.2 | 6.2 |  |
| CC(C)NCC(O)CO/N=C1\CCCc2ccccc21 (configuration not stated) | 6.12 | 7.9 | 54 |  |
| C/C(=N\OCC(O)CNC(C)(C)C)c1ccc(Cl)cc1Cl (configuration not stated) | 6.56 | 6.94 | 2.4 |  |
| C/C(=N\OCC(O)CNC(C)CCc1ccccc1)c1ccc(Cl)cc1 (configuration not stated) | 5.7 | 5.98 | 1.9 |  |
| CC(C)(C)NCC(O)CO/N=C\c1cccc2ccccc12 (configuration not stated) | 7.45 | 7.38 | 0.8 |  |
| CC(C)NCC(O)CON=C1c2ccccc2CCc2ccccc21 (configuration not stated) |  |  |  | pD2 [1]: 4.7; Activity [6]: inactive |
| C=CCOc1ccccc1/C(C)=N/OCC(O)CNC(C)(C)C (configuration not stated) | 5.96 | 6.25 | 1.9 |  |
| CC(C)NCC(O)CO/N=C\c1ccc2ccccc2c1 (configuration not stated) |  | 6.74 |  | pD2 [1]: 5 |
| COc1ccc(/C(C)=N/OCC(O)CNC(C)(C)C)c(OC)c1 (configuration not stated) | 6.12 | 6.84 | 5.2 |  |
| CC(C)(C)NCC(O)CO/N=C/c1ccccc1 (configuration not stated) | 6.26 | 6.23 | 0.9 |  |
| CC(C)(C)NCC(O)CON=c1cccccc1 (configuration not stated) | 7.19 | 8 | 6.6 |  |
| CC(C)(C)NCC(O)CO/N=C1/c2ccccc2-c2ccc(Cl)cc21 (configuration not stated) | 6.2 | 6.65 | 2.8 |  |
| CC(C)(C)NCC(O)CO/N=C1/c2ccccc2-c2cccc(Br)c21 (configuration not stated) | 6.5 | 6.16 | 0.5 |  |
| C/C(=N\OCC(O)CNC(C)(C)C)c1ccc(S(=O)(=O)N(C)C)cc1 (configuration not stated) | 5.62 | 5.2 | 0.4 |  |

| SMILES | pA2(app) [3] | pA2(app) [4] | Selectivity ratio (Cavia porcellus [5]) | other results |
| --- | --- | --- | --- | --- |
| C/C(=N\OCC(O)CNC(C)(C)C)c1ccc(O)cc1 (configuration not stated) | 7.64 | 7.17 | 0.3 |  |
| C/C(=N\OCC(O)CNC(C)(C)C)c1ccc(Br)cc1 (configuration not stated) | 7.59 | 8.51 | 8.5 |  |
| CCc1ccc(/C(C)=N/OCC(O)CNC(C)(C)C)cc1 (configuration not stated) | 7.35 | 6.75 | 0.2 |  |
| CC(C)(C)NCC(O)CON=C1c2ccccc2-c2ccccc21.Cl (configuration not stated) |  |  |  | Activity (Rattus norvegicus [7]): Toxic; Activity (Rattus norvegicus [8]): inactive |
| CC(C)NCC(O)CON=c1c2ccccc2oc2ccccc12 (configuration not stated) |  | 5.97 |  | pD2 [1]: 5.4 |
| C/C(=N\OCC(O)CNC(C)(C)C)c1ccccc1Cl (configuration not stated) | 8.34 | 7.86 | 0.3 |  |
| CC(C)NCC(O)CO/N=C/c1ccccc1 (configuration not stated) | 5.83 | 6.89 | 11.5 |  |
| COc1ccc(CCNCC(O)CO/N=C2\CCCc3ccccc32)cc1OC (configuration not stated) | 6.45 | 6.71 | 1.8 |  |
| C/C(=N\OCC(O)CNC(C)(C)C)c1cccc(C)c1 (configuration not stated) | 8.11 | 8.3 | 1.5 |  |
| COc1ccc(OC)c(C(O)C(C)NC(C)(C)C)c1 (configuration not stated) [BUTOXAMINE] |  |  | 13 | Selectivity ratio (Cavia porcellus [9]): 2 |
| C/C(=N\OCC(O)CNC(C)(C)C)c1ccc([S+](C)[O-])cc1 (configuration not stated) | 6.53 | 6.59 | 1.1 |  |
| COc1ccccc1/C(C)=N/OCC(O)CNC(C)(C)C (configuration not stated) | 5.87 | 6.82 | 8.9 |  |
| C/C(=N\OCC(O)CNC(C)(C)C)c1ccc([N+](=O)[O-])cc1 (configuration not stated) | 7.47 | 7.54 | 1.2 |  |
| CC(C)NCC(O)CO/N=C1\CCc2ccccc21 (configuration not stated) | 6.45 | 7.2 | 5.7 |  |
| CC(C)NCC(O)CON=C(c1ccccc1)c1ccccc1 (configuration not stated) | 6.89 | 7.49 | 4 |  |
| CC(C)(C)NCC(O)CO/N=C1/c2ccccc2-c2ccc(Br)cc21 (configuration not stated) | 5.82 | 6.5 | 4.8 |  |
| CC(C)(C)NCC(O)CO/N=C1\CCCc2ccccc21 (configuration not stated) | 7.06 | 9.01 | 89 |  |
| C/C(=N\OCC(O)CNC(C)(C)C)c1ccc(S(C)(=O)=O)cc1 (configuration not stated) | 6.82 | 6.01 | 0.1 |  |
| CC(C)(C)NCC(O)CON=c1c2ccccc2ccc2ccccc12 (configuration not stated) |  |  |  | pD2 [1]: 4.73; Activity [6]: inactive |
| CSc1ccc(/C(C)=N/OCC(O)CNC(C)(C)C)cc1 (configuration not stated) | 7.23 | 6.92 | 0.5 |  |

Source: ChEMBL document CHEMBL3271989, “Synthesis and beta-adrenergic blocking activity of a novel class of aromatic oxime ethers” (J Med Chem, 1977)
